Here are results for five compounds from patent US11395847B2, “Acylated GLP-1/GLP-2 dual agonists” (Zealand Pharma A/S, priority 2016, dated 2022).

Where a SMILES comes first, the peptide text is derived from it.

One series deals with T1, human GLP-1 receptor (Homo sapiens, UniProt P43220).
T1 construct: expressed in transfected cells
The experiment in a line: GLP-1 receptor potency assay (cAMP ALPHASCREEN, HEK293 cells stably expressing GLP-1 R). Conditions: cAMP response, HEK293 cells expressing human GLP-1 R. It is filed as cell-based. An excerpt: One useful in vitro assay for measuring GLP-1 and GLP-2 receptor activity is quantitation of cAMP, i.e. 3′-5′-cyclic adenosine monophosphate, which is a second messenger essential in many biological processes, and one of the most ubiquitous mechanisms for regulating cellular functions.
The cDNA encoding the human glucagon-like peptide 1 receptor (GLP-1 R) (primary accession number P43220) was cloned from the cDNA BC112126 (MGC:138331/IMAGE:8327594). The DNA encoding the GLP-1-R was amplified by PCR using primers encoding terminal restriction sites for subcloning. The 5′-end primers additionally encoded a near Kozak consensus sequence to ensure efficient translation. […] The PCR products encoding the GLP-1-R were subcloned into a mammalian expression vector containing a neomycin (G418) resistance marker. The mammalian expression vectors encoding the GLP-1-R were transfected into HEK293 cells by a standard calcium phosphate transfection method. 48 hours post-transfection, cells were seeded for limited dilution cloning and selected with 1 mg/ml G418 in the culture medium. Following 3 weeks in G418 selection clones were picked and tested in a functional GLP-1 receptor potency assay as described below.
The cAMP ALPHASCREEN® assay from Perkin Elmer was used to quantitate the cAMP response to activation of the GLP1 and GLP2 receptor, respectively. […] Data from test compounds eliciting an increase in the intracellular level of cAMP were normalized relative to the positive and negative control (vehicle) to calculate the EC50 and maximal response from the concentration response curve.
In general terms: Alpha assays give light when donor and acceptor beads are brought close together.

In the next series the target is T2, human GLP-2 receptor (Homo sapiens, UniProt O95838, D470N).
T2 construct: expressed in transfected cells
T2 sequence (O95838 1-553 D470N): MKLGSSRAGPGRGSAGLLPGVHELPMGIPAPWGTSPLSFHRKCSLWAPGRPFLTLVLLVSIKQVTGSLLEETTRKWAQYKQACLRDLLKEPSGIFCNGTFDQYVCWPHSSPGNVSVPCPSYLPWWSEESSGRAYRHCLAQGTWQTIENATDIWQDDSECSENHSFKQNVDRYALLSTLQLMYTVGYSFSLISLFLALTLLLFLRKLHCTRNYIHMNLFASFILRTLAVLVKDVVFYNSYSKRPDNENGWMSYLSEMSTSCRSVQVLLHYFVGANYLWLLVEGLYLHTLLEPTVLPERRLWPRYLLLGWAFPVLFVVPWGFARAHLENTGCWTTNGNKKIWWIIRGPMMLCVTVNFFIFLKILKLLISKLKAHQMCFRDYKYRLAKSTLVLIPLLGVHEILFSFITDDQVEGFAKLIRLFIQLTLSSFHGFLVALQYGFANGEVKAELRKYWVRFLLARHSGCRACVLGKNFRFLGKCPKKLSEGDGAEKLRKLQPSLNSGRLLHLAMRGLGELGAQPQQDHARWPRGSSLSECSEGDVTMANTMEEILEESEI
Nature of the series: GLP-2 receptor potency assay (cAMP ALPHASCREEN, HEK293 cells stably expressing GLP-2 R). The conditions noted are these: cAMP response, HEK293 cells expressing human GLP-2 R; read-out: EC50 GLP-2. It is filed as cell-based. The method, boiled down:
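HEK293 clones stably transfected with the human GLP-2 receptor, selected with G418, were used. Intracellular cAMP was quantified by AlphaScreen. Responses were normalised to positive and vehicle controls, and EC50 and maximal response were taken from concentration-response curves.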

Series [1] can be described thus: Chemical stability (RP-HPLC normalized purity after incubation at 40° C.). It is filed as physicochemical. Conditions: 14-day incubation, 0.2 mg/ml, normalized purity (area-%); for pH 7 normalized stability: pH 7, 40° C. The method, boiled down:
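Peptide at 0.2 mg/ml final in water adjusted to pH 6, 7, 7.5 or 9, incubated at 40° C for 14 days. Purity measured as main-peak area-% by C18 RP-HPLC (acetonitrile/TFA/water gradient, UV 220 nm) and normalized to T=0 set at 100 for each pH.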

T1 sequence (P43220 24-463): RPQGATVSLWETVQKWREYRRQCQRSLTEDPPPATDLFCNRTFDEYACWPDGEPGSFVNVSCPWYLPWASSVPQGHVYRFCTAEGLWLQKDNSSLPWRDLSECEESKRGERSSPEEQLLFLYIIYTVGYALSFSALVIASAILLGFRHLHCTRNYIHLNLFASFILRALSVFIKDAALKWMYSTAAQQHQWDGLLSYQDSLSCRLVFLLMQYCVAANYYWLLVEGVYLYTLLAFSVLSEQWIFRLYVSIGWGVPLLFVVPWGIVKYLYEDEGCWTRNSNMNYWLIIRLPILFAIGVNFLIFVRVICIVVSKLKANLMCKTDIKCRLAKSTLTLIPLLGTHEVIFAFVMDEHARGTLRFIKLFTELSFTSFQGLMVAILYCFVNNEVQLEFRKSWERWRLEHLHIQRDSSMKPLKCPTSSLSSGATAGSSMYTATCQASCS

For orientation: EC50 means the concentration that produces a half-maximal response. `CC[C@H](C)[C@H](NC(=O)[C@H](Cc1ccccc1)NC(=O)[C@H](CC(=O)O)NC(=O)[C@H](CCCNC(=N)N)NC(=O)[C@H](C)NC(=O)[C@H](C)NC(=O)[C@H](CC(C)C)NC(=O)[C@H](CCCCNC(=O)CC[C@H](NC(=O)CCCCCCCCCCCCCCCCC(=O)O)C(=O)O)NC(=O)[C@H](CC(=O)O)NC(=O)[C@H](CC(C)C)NC(=O)[C@@H](NC(=O)[C@@H](NC(=O)[C@H](C)NC(=O)[C@H](CC(C)C)NC(=O)[C@H](CCC(=O)O)NC(=O)[C@H](CO)NC(=O)[C@H](CO)NC(=O)[C@H](Cc1ccccc1)NC(=O)[C@@H](NC(=O)CNC(=O)[C@H](CCC(=O)O)NC(=O)C(C)(C)NC(=O)[C@@H](N)Cc1c[nH]cn1)[C@@H](C)O)[C@@H](C)O)[C@@H](C)CC)C(=O)N[C@@H](C)C(=O)N[C@@H](Cc1c[nH]c2ccccc12)C(=O)N[C@@H](CC(C)C)C(=O)N[C@H](C(=O)N[C@@H](CCC(=O)O)C(=O)N[C@@H](Cc1c[nH]cn1)C(=O)N[C@@H](CCCCN)C(=O)N[C@H](C(=O)N[C@H](C(=O)N[C@@H](CC(=O)O)C(=O)O)[C@@H](C)O)[C@@H](C)CC)[C@@H](C)CC` [Compound 10] (HELM PEPTIDE1{H.[Aib].E.G.T.F.S.S.E.L.A.T.I.L.D.K.L.A.A.R.D.F.I.A.W.L.I.E.H.K.I.T.D}|PEPTIDE2{[O=C(O)CCCCCCCCCCCCCCCCC(=O)[*:2]].[gGlu]}$PEPTIDE1,PEPTIDE2,16:R3-2:R2$$$V2.0): the results for the EC50 on human GLP-1 receptor and on human GLP-2 receptor were 1.8 nM and 0.087 nM, respectively.
On human GLP-1 receptor, `CC[C@H](C)[C@H](NC(=O)[C@H](Cc1ccccc1)NC(=O)[C@H](CC(=O)O)NC(=O)[C@H](CCCNC(=N)N)NC(=O)[C@H](C)NC(=O)[C@H](C)NC(=O)[C@H](CC(C)C)NC(=O)[C@H](CCCCNC(=O)CC[C@H](NC(=O)CCCCCCCCCCCCCCCCC(=O)O)C(=O)O)NC(=O)[C@H](CC(=O)O)NC(=O)[C@H](CC(C)C)NC(=O)[C@@H](NC(=O)[C@@H](NC(=O)[C@H](C)NC(=O)[C@H](CC(C)C)NC(=O)[C@H](CCC(=O)O)NC(=O)[C@H](CO)NC(=O)[C@@H](NC(=O)[C@H](Cc1ccccc1)NC(=O)[C@H](CO)NC(=O)CNC(=O)[C@H](CCC(=O)O)NC(=O)C(C)(C)NC(=O)[C@@H](N)Cc1c[nH]cn1)[C@@H](C)O)[C@@H](C)O)[C@@H](C)CC)C(=O)N[C@@H](C)C(=O)N[C@@H](Cc1c[nH]c2ccccc12)C(=O)N[C@@H](CC(C)C)C(=O)N[C@H](C(=O)N[C@@H](CCC(=O)O)C(=O)N[C@@H](Cc1c[nH]cn1)C(=O)N[C@@H](CCCCN)C(=O)N[C@H](C(=O)N[C@H](C(=O)N[C@@H](CC(=O)O)C(=O)O)[C@@H](C)O)[C@@H](C)CC)[C@@H](C)CC` [Compound 11] (HELM PEPTIDE1{H.[Aib].E.G.S.F.T.S.E.L.A.T.I.L.D.K.L.A.A.R.D.F.I.A.W.L.I.E.H.K.I.T.D}|PEPTIDE2{[O=C(O)CCCCCCCCCCCCCCCCC(=O)[*:2]].[gGlu]}$PEPTIDE1,PEPTIDE2,16:R3-2:R2$$$V2.0) displayed an EC50 of 0.32 nM. The “pH 7 normalized stability” value in series [1] is “A (>90% normalised stability)”.
At human GLP-1 receptor, `CC[C@H](C)[C@H](NC(=O)[C@H](Cc1ccccc1)NC(=O)[C@H](CC(=O)O)NC(=O)[C@H](CCCNC(=N)N)NC(=O)[C@H](C)NC(=O)[C@H](C)NC(=O)[C@H](CCC(N)=O)NC(=O)[C@H](CCCCNC(=O)CC[C@H](NC(=O)CCCCCCCCCCCCCCCCC(=O)O)C(=O)O)NC(=O)[C@H](CC(=O)O)NC(=O)[C@H](CC(C)C)NC(=O)[C@@H](NC(=O)[C@@H](NC(=O)[C@H](C)NC(=O)[C@H](CC(C)C)NC(=O)[C@H](CCC(=O)O)NC(=O)[C@H](CO)NC(=O)[C@@H](NC(=O)[C@H](Cc1ccccc1)NC(=O)[C@H](CO)NC(=O)CNC(=O)[C@H](CCC(=O)O)NC(=O)C(C)(C)NC(=O)[C@@H](N)Cc1c[nH]cn1)[C@@H](C)O)[C@@H](C)O)[C@@H](C)CC)C(=O)N[C@@H](C)C(=O)N[C@@H](Cc1c[nH]c2ccccc12)C(=O)N[C@@H](CC(C)C)C(=O)N[C@H](C(=O)N[C@@H](CCCCN)C(=O)N[C@@H](Cc1c[nH]cn1)C(=O)N[C@@H](CCCCN)C(=O)N[C@H](C(=O)N[C@H](C(=O)N[C@@H](CC(=O)O)C(=O)O)[C@@H](C)O)[C@@H](C)CC)[C@@H](C)CC` [Compound 29] (HELM PEPTIDE1{H.[Aib].E.G.S.F.T.S.E.L.A.T.I.L.D.K.Q.A.A.R.D.F.I.A.W.L.I.K.H.K.I.T.D}|PEPTIDE2{[O=C(O)CCCCCCCCCCCCCCCCC(=O)[*:2]].[gGlu]}$PEPTIDE1,PEPTIDE2,16:R3-2:R2$$$V2.0) had an EC50 of 0.31 nM. Besides, the “pH 6 normalized stability” value in series [1] (pH 6, 40° C.) is “A (>90% normalised stability)”. Also, the “pH 7 normalized stability” value in series [1] is given as “B (>80% stability)”.
On to `CC[C@H](C)[C@H](NC(=O)[C@H](Cc1ccccc1)NC(=O)[C@H](CC(=O)O)NC(=O)[C@H](CCCNC(=N)N)NC(=O)[C@H](C)NC(=O)[C@H](C)NC(=O)[C@H](CCC(N)=O)NC(=O)[C@H](CCCCNC(=O)[C@H](CCCCN)NC(=O)[C@H](CCC(=O)O)NC(=O)[C@H](CCCCN)NC(=O)CC[C@H](NC(=O)CCCCCCCCCCCCCCCCCCC(=O)O)C(=O)O)NC(=O)[C@H](CC(=O)O)NC(=O)[C@H](CC(C)C)NC(=O)[C@@H](NC(=O)[C@@H](NC(=O)[C@H](C)NC(=O)[C@H](CC(C)C)NC(=O)[C@H](CCC(=O)O)NC(=O)[C@H](CO)NC(=O)[C@@H](NC(=O)[C@H](Cc1ccccc1)NC(=O)[C@@H](NC(=O)CNC(=O)[C@H](CCC(=O)O)NC(=O)C(C)(C)NC(=O)[C@@H](N)Cc1c[nH]cn1)[C@@H](C)O)[C@@H](C)O)[C@@H](C)O)[C@@H](C)CC)C(=O)N[C@@H](C)C(=O)N[C@@H](Cc1c[nH]c2ccccc12)C(=O)N[C@@H](CC(C)C)C(=O)N[C@H](C(=O)N[C@@H](CCC(N)=O)C(=O)N[C@@H](Cc1c[nH]cn1)C(=O)N[C@@H](CCCCN)C(=O)N[C@H](C(=O)N[C@H](C(=O)N[C@@H](CC(=O)O)C(=O)O)[C@@H](C)O)[C@@H](C)CC)[C@@H](C)CC` [Compound 51] (HELM PEPTIDE1{H.[Aib].E.G.T.F.T.S.E.L.A.T.I.L.D.K.Q.A.A.R.D.F.I.A.W.L.I.Q.H.K.I.T.D}|PEPTIDE2{[O=C(O)CCCCCCCCCCCCCCCCCCC(=O)[*:2]].[gGlu].K.E.K}$PEPTIDE1,PEPTIDE2,16:R3-5:R2$$$V2.0), for which the EC50 at human GLP-1 receptor is 0.02 nM; at human GLP-2 receptor it was 0.18 nM.
Consider `CC[C@H](C)[C@H](NC(=O)[C@H](Cc1ccccc1)NC(=O)[C@H](CC(=O)O)NC(=O)[C@H](CCCNC(=N)N)NC(=O)[C@H](C)NC(=O)[C@H](C)NC(=O)[C@H](CCCCNC(=O)COCCOCCNC(=O)[C@H](CCCCN)NC(=O)[C@H](CCC(=O)O)NC(=O)[C@H](CCCCN)NC(=O)CC[C@H](NC(=O)CCCCCCCCCCCCCCCCCCC(=O)O)C(=O)O)NC(=O)CNC(=O)[C@H](CCC(=O)O)NC(=O)[C@H](CC(C)C)NC(=O)[C@@H](NC(=O)[C@@H](NC(=O)[C@H](C)NC(=O)[C@H](CC(C)C)NC(=O)[C@H](CCC(=O)O)NC(=O)[C@H](CO)NC(=O)[C@@H](NC(=O)[C@H](Cc1ccccc1)NC(=O)[C@H](CO)NC(=O)CNC(=O)[C@H](CCC(=O)O)NC(=O)C(C)(C)NC(=O)[C@@H](N)Cc1c[nH]cn1)[C@@H](C)O)[C@@H](C)O)[C@@H](C)CC)C(=O)N[C@@H](C)C(=O)N[C@@H](Cc1c[nH]c2ccccc12)C(=O)N[C@@H](CC(C)C)C(=O)N[C@H](C(=O)N[C@@H](CCC(=O)O)C(=O)N[C@@H](Cc1c[nH]cn1)C(=O)N[C@@H](CCCCN)C(=O)N[C@H](C(=O)N[C@H](C(=O)N[C@@H](CC(=O)O)C(=O)O)[C@@H](C)O)[C@@H](C)CC)[C@@H](C)CC` [Compound 61] (HELM PEPTIDE1{H.[Aib].E.G.S.F.T.S.E.L.A.T.I.L.E.G.K.A.A.R.D.F.I.A.W.L.I.E.H.K.I.T.D}|PEPTIDE2{[O=C(O)CCCCCCCCCCCCCCCCCCC(=O)[*:2]].[gGlu].K.E.K.[O=C(COCCOCCN[*:1])[*:2]]}$PEPTIDE1,PEPTIDE2,17:R3-6:R2$$$V2.0), for which the EC50 came out at 0.13 nM on human GLP-1 receptor and 0.2 nM at human GLP-2 receptor.
